A word on the Ki: it is the equilibrium dissociation constant of an inhibitor or competing ligand from its target.

Ki data for 19 compounds are collected here from US10196390B2, “TYK2 inhibitors and uses thereof” (Nimbus Lakshmi, Inc., priority 2014, dated 2019).

One assay concerns the target JAK2 (Homo sapiens (Human), UniProt O60674). Kind of assay: JAK2 activity inhibition assay (radioactive kinase assay / Caliper assay). The format is biochemical. To be noted: read-out: JAK2 Ki. The method, boiled down:
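Mobility-shift (Caliper) read-out of phosphorylated peptide substrate. Compound diluted in 25 mM HEPES pH 7.5, 0.01% Brij-35, 0.01% Triton, 0.5 mM EGTA; enzyme added, then peptide plus ATP in 10 mM MgCl2. Incubated 25 min at 28° C, stopped with EDTA buffer.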

The target in the next assay is TYK2 (Homo sapiens (Human), UniProt P29597). Kind of assay: Tyk2 activity inhibition assay (radioactive kinase assay / Caliper assay). The format is biochemical. The method, boiled down: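 Radiometric format: TYK2 with peptide substrate (20 μM) and 33P-ATP at 10 μM in HEPES pH 7.5, 1% DMSO, 120 min at room temp, P81 paper capture. Caliper mobility-shift format: TYK2 9.75 nM, peptide 30 at 3 uM, ATP 16 uM (also 1 mM), 25 min at 28° C.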
Sequence of TYK2 (P29597 whole entry): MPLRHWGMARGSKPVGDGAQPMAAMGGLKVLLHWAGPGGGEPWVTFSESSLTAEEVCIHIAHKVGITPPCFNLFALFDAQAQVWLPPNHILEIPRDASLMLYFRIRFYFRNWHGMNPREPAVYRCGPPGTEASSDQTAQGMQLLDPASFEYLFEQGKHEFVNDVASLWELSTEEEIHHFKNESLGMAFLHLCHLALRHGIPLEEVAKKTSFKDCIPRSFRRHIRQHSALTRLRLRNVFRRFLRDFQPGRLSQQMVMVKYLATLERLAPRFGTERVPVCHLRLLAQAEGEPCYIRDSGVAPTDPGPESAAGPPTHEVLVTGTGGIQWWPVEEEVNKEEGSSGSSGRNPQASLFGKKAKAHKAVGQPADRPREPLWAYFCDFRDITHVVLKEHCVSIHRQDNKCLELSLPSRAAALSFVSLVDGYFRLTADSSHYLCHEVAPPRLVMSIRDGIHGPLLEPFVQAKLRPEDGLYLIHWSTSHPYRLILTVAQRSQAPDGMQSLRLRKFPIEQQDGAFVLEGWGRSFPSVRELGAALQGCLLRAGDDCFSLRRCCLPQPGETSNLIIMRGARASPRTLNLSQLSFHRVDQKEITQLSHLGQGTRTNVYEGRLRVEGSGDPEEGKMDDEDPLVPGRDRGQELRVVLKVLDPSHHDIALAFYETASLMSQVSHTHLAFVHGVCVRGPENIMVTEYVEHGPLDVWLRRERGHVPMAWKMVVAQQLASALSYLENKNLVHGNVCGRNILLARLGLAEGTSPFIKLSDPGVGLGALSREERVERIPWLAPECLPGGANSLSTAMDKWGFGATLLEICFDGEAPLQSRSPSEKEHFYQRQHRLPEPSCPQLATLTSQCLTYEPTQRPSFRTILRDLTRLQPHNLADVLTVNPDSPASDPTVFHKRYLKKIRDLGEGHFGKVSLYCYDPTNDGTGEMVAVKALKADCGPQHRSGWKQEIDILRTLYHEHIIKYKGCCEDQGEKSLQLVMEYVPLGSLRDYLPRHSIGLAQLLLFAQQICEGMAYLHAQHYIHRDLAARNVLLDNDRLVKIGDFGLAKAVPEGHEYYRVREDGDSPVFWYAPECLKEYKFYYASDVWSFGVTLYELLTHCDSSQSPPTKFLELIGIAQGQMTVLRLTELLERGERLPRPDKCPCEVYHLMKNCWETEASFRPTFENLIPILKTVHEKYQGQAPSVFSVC

Sequence of JAK2 (O60674 whole entry): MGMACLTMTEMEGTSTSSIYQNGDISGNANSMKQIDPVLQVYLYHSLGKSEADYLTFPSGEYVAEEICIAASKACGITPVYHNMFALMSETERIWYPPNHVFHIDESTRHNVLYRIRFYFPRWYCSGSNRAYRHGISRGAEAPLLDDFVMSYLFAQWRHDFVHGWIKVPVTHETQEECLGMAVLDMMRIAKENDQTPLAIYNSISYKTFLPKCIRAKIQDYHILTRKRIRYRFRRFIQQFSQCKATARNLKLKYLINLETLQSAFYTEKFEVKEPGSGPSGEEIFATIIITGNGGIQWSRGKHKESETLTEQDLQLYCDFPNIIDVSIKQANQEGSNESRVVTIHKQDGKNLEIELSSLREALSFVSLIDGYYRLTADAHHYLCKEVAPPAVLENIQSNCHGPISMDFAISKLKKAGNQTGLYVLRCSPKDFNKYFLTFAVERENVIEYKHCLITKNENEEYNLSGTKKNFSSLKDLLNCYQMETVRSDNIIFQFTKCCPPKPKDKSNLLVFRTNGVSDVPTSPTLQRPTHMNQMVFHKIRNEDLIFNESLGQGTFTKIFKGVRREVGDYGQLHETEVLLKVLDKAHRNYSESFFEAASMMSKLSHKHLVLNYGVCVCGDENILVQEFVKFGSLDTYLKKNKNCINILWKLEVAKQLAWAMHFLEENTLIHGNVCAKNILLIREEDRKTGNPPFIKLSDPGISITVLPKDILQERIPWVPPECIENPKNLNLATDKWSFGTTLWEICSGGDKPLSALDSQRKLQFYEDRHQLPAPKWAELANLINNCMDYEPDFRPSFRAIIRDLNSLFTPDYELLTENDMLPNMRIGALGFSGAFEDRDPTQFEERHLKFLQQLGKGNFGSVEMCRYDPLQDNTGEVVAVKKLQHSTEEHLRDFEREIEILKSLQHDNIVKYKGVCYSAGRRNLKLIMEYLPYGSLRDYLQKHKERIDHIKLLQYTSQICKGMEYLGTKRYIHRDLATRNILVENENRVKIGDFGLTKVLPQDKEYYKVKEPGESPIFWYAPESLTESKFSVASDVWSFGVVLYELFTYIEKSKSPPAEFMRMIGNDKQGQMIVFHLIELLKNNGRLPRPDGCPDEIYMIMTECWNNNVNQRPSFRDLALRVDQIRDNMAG

Take `CN1CCN(C)[C@@](C)(c2ccc(Nc3nc(-c4c(F)cccc4F)nc4c3C(=O)NC4)cc2)C1=O` [Compound I-211, (S)-2-(2,6-difluorophenyl)-4-((4-(1,2,4-trimethyl-3-oxopiperazin-2-yl)phenyl)amino)-6,7-dihydro-5H-pyrrolo[3,4-d]pyrimidin-5-one]: the Ki was 10 to 100 nM at JAK2 and below 10 nM at TYK2.
The matching figures for `CC1(C)CC(c2ccc(Nc3nc(-c4c(F)cccc4F)nc4c3C(=O)NC4)cc2)C(=O)N1` (centres unmarked) [Compound I-213, 2-(2,6-difluorophenyl)-4-((4-(5,5-dimethyl-2-oxopyrrolidin-3-yl)phenyl)amino)-6,7-dihydro-5H-pyrrolo[3,4-d]pyrimidin-5-one]: 100 to 1000 nM and below 10 nM.
Taken in the same sequence, the figures for `CN1CCNC(C)(c2ccc(Nc3nc(-c4c(F)cccc4F)nc4c3C(=O)NC4)cc2)C1=O` (centres unmarked) [Compound I-215, 2-(2,6-difluorophenyl)-4-((4-(2,4-dimethyl-3-oxopiperazin-2-yl)phenyl)amino)-6,7-dihydro-5H-pyrrolo[3,4-d]pyrimidin-5-one] were 10 to 100 nM and below 10 nM.
Taken in the same sequence, the figures for `CN1CCN[C@](C)(c2ccc(Nc3nc(-c4c(F)cccc4F)nc4c3C(=O)NC4)cc2)C1=O` [Compound I-216, (R)-2-(2,6-difluorophenyl)-4-((4-(2,4-dimethyl-3-oxopiperazin-2-yl)phenyl)amino)-6,7-dihydro-5H-pyrrolo[3,4-d]pyrimidin-5-one] were 100 to 1000 nM and below 10 nM.
Consider `CN1CCN[C@@](C)(c2ccc(Nc3nc(-c4c(F)cccc4F)nc4c3C(=O)NC4)cc2)C1=O` [Compound I-217, (S)-2-(2,6-difluorophenyl)-4-((4-(2,4-dimethyl-3-oxopiperazin-2-yl)phenyl)amino)-6,7-dihydro-5H-pyrrolo[3,4-d]pyrimidin-5-one], for which the Ki at JAK2 was 10 to 100 nM; on TYK2, below 10 nM.
The matching figures for `CC1(C)C[C@@H](c2ccc(Nc3nc(-c4c(F)cccc4F)nc4c3C(=O)NC4)cc2)C(=O)N1` [Compound I-218, (S)-2-(2,6-difluorophenyl)-4-((4-(5,5-dimethyl-2-oxopyrrolidin-3-yl)phenyl)amino)-6,7-dihydro-5H-pyrrolo[3,4-d]pyrimidin-5-one]: 100 to 1000 nM and below 10 nM.
Turning to `CC1(C)C[C@H](c2ccc(Nc3nc(-c4c(F)cccc4F)nc4c3C(=O)NC4)cc2)C(=O)N1` [Compound I-219, (R)-2-(2,6-difluorophenyl)-4-((4-(5,5-dimethyl-2-oxopyrrolidin-3-yl)phenyl)amino)-6,7-dihydro-5H-pyrrolo[3,4-d]pyrimidin-5-one], the figures for the Ki on JAK2 and at TYK2 were 10 to 100 nM and below 10 nM, respectively.
Taken in the same sequence, the figures for `CN1C(=O)C(C)(c2ccc(Nc3nc(-c4c(F)cccc4F)nc4c3C(=O)NC4)cc2)CC1(C)C` (centres unmarked) [Compound I-220, 2-(2,6-difluorophenyl)-4-((4-(1,3,5,5-tetramethyl-2-oxo-pyrrolidin-3-yl)phenyl)amino)-6,7-dihydro-5H-pyrrolo[3,4-d]pyrimidin-5-one] were 10 to 100 nM and below 10 nM.
Taken in the same sequence, the figures for `CN1C(=O)[C@](C)(c2ccc(Nc3nc(-c4c(F)cccc4F)nc4c3C(=O)NC4)cc2)CC1(C)C` [Compound I-221, (S)-2-(2,6-difluorophenyl)-4-((4-(1,3,5,5-tetramethyl-2-oxopyrrolidin-3-yl)phenyl)amino)-6,7-dihydro-5H-pyrrolo[3,4-d]pyrimidin-5-one] were 10 to 100 nM and below 10 nM.
Turning to `CN1C(=O)[C@@](C)(c2ccc(Nc3nc(-c4c(F)cccc4F)nc4c3C(=O)NC4)cc2)CC1(C)C` [Compound I-222, (R)-2-(2,6-difluorophenyl)-4-((4-(1,3,5,5-tetramethyl-2-oxopyrrolidin-3-yl)phenyl)amino)-6,7-dihydro-5H-pyrrolo[3,4-d]pyrimidin-5-one], the Ki on JAK2 was 10 to 100 nM; on TYK2 it was below 10 nM.
With `CN1CCNC(C)(c2ccc(Nc3cc(-c4c(F)cccc4F)nc4c3C(=O)NC4)nc2)C1=O` (centres unmarked) [Compound I-223, 2-(2,6-difluorophenyl)-4-((5-(2,4-dimethyl-3-oxopiperazin-2-yl)pyridin-2-yl)amino)-6,7-dihydro-5H-pyrrolo[3,4-b]pyridin-5-one], the Ki at JAK2 and on TYK2 was below 10 nM in each case.
In the case of `CN1CCN[C@](C)(c2ccc(Nc3cc(-c4c(F)cccc4F)nc4c3C(=O)NC4)nc2)C1=O` [Compound I-224, (R)-2-(2,6-difluorophenyl)-4-((5-(2,4-dimethyl-3-oxopiperazin-2-yl)pyridin-2-yl)amino)-6,7-dihydro-5H-pyrrolo[3,4-b]pyridin-5-one], the Ki on JAK2 and at TYK2 was below 10 nM each time.
Take `CN1CCN[C@@](C)(c2ccc(Nc3cc(-c4c(F)cccc4F)nc4c3C(=O)NC4)nc2)C1=O` [Compound I-225, (S)-2-(2,6-difluorophenyl)-4-((5-(2,4-dimethyl-3-oxopiperazin-2-yl)pyridin-2-yl)amino)-6,7-dihydro-5H-pyrrolo[3,4-b]pyridin-5-one]: the Ki on JAK2 and at TYK2 was below 10 nM in each case.
In the case of `O=C(NCC1CC1)c1ccc(Nc2cc(-c3c(F)cccc3F)nc3c2C(=O)NC3)nc1` [Compound I-226, N-(cyclopropylmethyl)-6-((2-(2,6-difluorophenyl)-5-oxo-6,7-dihydro-5H-pyrrolo[3,4-b]pyridin-4-yl)amino)nicotinamide], the Ki was 10 to 100 nM at JAK2 and below 10 nM on TYK2.
The matching figures for `COc1ccc(Nc2cc(-c3c(F)cccc3F)nc3c2C(=O)NC3)cc1` [Compound I-230, 2-(2,6-difluorophenyl)-4-((4-methoxyphenyl)amino)-6,7-dihydro-5H-pyrrolo[3,4-b]pyridin-5-one]: 100 to 1000 nM and below 10 nM.
As for `NC(=O)c1cc(F)c(-c2cc(Nc3ccc(N4CCOCC4)cn3)c3c(n2)CNC3=O)c(F)c1` [Compound I-250, 3,5-difluoro-4-(4-((5-morpholinopyridin-2-yl)amino)-5-oxo-6,7-dihydro-5H-pyrrolo[3,4-b]pyridin-2-yl)benzamide], the Ki lay in the range of 100 to 1000 nM on JAK2 and 10 to 100 nM on TYK2.
Taken in the same sequence, the figures for `CC1(C)CN(c2ccc(Nc3cc(-c4c(F)cccc4F)nc4c3C(=O)NC4)nc2)CC[C@H]1O` [Compound I-268, (R)-2-(2,6-difluorophenyl)-4-((5-(4-hydroxy-3,3-dimethyl-piperidin-1-yl)pyridin-2-yl)amino)-6,7-dihydro-5H-pyrrolo[3,4-b]pyridin-5-one] were 10 to 100 nM and below 10 nM.
In the case of `O=C1NCc2nc(-c3c(F)cccc3F)cc(Nc3ccc(C(=O)N4CCOCC4)nc3)c21` [Compound I-280, 2-(2,6-difluorophenyl)-4-((6-(morpholine-4-carbonyl)pyridin-3-yl)amino)-6,7-dihydro-5H-pyrrolo[3,4-b]pyridin-5-one], the values for the Ki at JAK2 and on TYK2 were 100 to 1000 nM and 10 to 100 nM, respectively.
The matching figures for `N#Cc1cccc(F)c1-c1cc(Nc2ccc(N3CCOCC3)cn2)c2c(n1)CNC2=O` [Compound I-281, 3-fluoro-2-(4-((5-morpholinopyridin-2-yl)amino)-5-oxo-6,7-dihydro-5H-pyrrolo[3,4-b]pyridin-2-yl)benzonitrile]: below 10 nM and below 10 nM.
